In BindingDB's records for doi:10.7270/Q2TX3CSC (Vanderbilt Screening Center for GPCRs, Ion Channels and …, 2009):

These compounds were tested against T1, Solute carrier family 12 member 5 (Homo sapiens, UniProt Q9H2X9) (assay: KCC2 modulator potency by thallium flux, dose response, cell-based, HEK293 KCC2, FluoZin-2 fluorescence (AID 1736)). Conditions: not given.
T1 sequence (Q9H2X9 whole entry): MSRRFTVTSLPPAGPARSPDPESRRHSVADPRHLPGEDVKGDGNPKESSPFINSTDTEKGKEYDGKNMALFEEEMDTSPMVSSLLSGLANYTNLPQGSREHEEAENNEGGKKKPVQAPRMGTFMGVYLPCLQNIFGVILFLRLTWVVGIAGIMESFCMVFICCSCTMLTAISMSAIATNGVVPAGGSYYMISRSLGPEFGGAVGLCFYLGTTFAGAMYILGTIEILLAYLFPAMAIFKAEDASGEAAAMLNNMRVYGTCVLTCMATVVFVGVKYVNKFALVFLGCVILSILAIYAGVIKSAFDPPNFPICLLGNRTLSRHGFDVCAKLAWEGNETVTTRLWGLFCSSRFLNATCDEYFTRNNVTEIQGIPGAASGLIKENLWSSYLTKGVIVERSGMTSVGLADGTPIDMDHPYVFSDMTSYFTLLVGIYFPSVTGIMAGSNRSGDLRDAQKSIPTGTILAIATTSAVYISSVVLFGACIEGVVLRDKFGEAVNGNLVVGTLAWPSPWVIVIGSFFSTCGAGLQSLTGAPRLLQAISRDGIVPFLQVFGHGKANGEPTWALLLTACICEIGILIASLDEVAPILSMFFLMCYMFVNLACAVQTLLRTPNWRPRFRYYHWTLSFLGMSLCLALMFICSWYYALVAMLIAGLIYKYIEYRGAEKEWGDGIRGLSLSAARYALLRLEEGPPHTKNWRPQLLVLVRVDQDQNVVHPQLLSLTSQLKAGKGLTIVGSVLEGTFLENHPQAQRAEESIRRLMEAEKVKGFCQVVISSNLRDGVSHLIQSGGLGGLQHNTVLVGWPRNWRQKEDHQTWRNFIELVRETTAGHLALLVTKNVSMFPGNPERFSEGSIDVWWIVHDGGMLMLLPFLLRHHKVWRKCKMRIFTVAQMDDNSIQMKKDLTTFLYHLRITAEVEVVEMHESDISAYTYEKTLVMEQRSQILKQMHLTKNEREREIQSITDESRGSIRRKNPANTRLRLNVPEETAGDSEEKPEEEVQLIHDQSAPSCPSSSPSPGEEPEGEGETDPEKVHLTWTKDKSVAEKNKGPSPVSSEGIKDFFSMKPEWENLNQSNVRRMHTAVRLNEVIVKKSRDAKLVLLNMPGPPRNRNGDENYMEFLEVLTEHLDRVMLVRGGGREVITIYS

SMILES	EC50 [µM]
O=C(CSc1ncccc1-c1nc2ccccc2[nH]1)N1CCN(c2ccccc2F)CC1 [MLS000033700]	34.5
COc1cccc(C=c2sc(=CC(=O)c3ccc(C)cc3)[nH]c2=O)c1OC [5-[(2,3-dimethoxyphenyl)methylidene]-2-[2-(4-methylphenyl)-2-oxidanylidene-ethylidene]-1,3-thiazolidin-4-one]	15.5
Cc1cc(C(=O)COC(=O)CCc2nc3ccccc3s2)c(C)n1C [3-(1,3-benzothiazol-2-yl)propanoic acid [2-oxo-2-(1,2,5-trimethyl-3-pyrrolyl)ethyl] ester]	97.3
O=C(O)/C=C/c1cn(Cc2ccccc2)nc1-c1ccccc1 [MLS000567315]	3.77
CC(C)(CN=C(S)NCCc1ccccc1)CN=C(S)NCCc1ccccc1 [1-[2,2-dimethyl-3-(2-phenylethylcarbamothioylamino)propyl]-3-(2-phenylethyl)thiourea]	165
CCCCCC(=O)Cc1cc(O)cc2c1C(=O)Oc1cc(O)c(C(=O)O)c(CCCCC)c1O2 [3,8-Dihydroxy-11-oxo-1-(2-oxo-heptyl)-6-pentyl-11H-dibenzo[b,e][1,4]dioxepine-7-carboxylic acid]	4.02
CCn1nnnc1SCC(=O)Nc1nc(-c2cccs2)cs1 [2-(1-Ethyl-1H-tetrazol-5-ylsulfanyl)-N-(4-thiophen-2-yl-thiazol-2-yl)-acetamide]	1.32
CCCn1c(N)c(C(=O)CSc2nnc(Cc3ccccc3)o2)c(=O)n(C)c1=O [6-amino-3-methyl-5-[1-oxo-2-[[5-(phenylmethyl)-1,3,4-oxadiazol-2-yl]thio]ethyl]-1-propylpyrimidine-2,4-dione]	0.017
CS(=O)(=O)N(CC(=O)N1CCN(c2ccc(F)cc2)CC1)c1ccc(F)c(Cl)c1 [MLS000531433]	5.57
Cc1ccc(/C=C2\SC(=S)N(c3c(C)n(C)n(-c4ccccc4)c3=O)C2=O)cc1 [3-(1,5-dimethyl-3-oxo-2-phenyl-2,3-dihydro-1H-pyrazol-4-yl)-5-(4-methylbenzylidene)-2-thioxo-1,3-thiazolidin-4-one]	0.13
O=C(CC(Cc1ccccc1)c1ccco1)NC1CCCCC1 (stereo unspecified) [MLS000556612]	212
O=C(Cn1nnc2c(cnn2-c2ccccc2)c1=O)N1CCN(c2ccccc2F)CC1 [3-[2-[4-(2-fluorophenyl)-1-piperazinyl]-2-oxoethyl]-7-phenyl-4-pyrazolo[3,4-d]triazinone]	147
Cc1[nH]c2ccccc2c1SCC(=O)N1CCN(c2ccccc2)CC1 [2-[(2-methyl-1H-indol-3-yl)thio]-1-(4-phenyl-1-piperazinyl)ethanone]	4.24
CCC(Cc1ccccc1)NC(=O)CN(C)S(=O)(=O)c1ccc2c(c1)c(=O)n(C)c(=O)n2C (stereo unspecified) [2-[(1,3-dimethyl-2,4-dioxo-6-quinazolinyl)sulfonyl-methylamino]-N-(1-phenylbutan-2-yl)acetamide]	7.26
CC(C)(C)NC(=O)C(c1ccncc1)N(Cc1ccco1)C(=O)c1ccc(-c2ccccc2)[nH]1 (stereo unspecified) [N-[2-(tert-butylamino)-2-oxo-1-pyridin-4-ylethyl]-N-(furan-2-ylmethyl)-5-phenyl-1H-pyrrole-2-carboxamide]	7.02
O=C(NCc1cccnc1)c1ccc(COc2ccc(Cl)cc2Cl)o1 [5-[(2,4-dichlorophenoxy)methyl]-N-(3-pyridinylmethyl)-2-furancarboxamide]	668
CCN(CC)S(=O)(=O)c1ccc(NC(=O)CSc2ncnc3ccccc23)cc1 [MLS000393282]	1.1
CN1/C(=C\C(=S)NC(=O)c2cccc(Br)c2)C(C)(C)c2ccccc21 [SMR000254682]	5.4

Same assay, conditions: inactive by the depositor's call

SMILES	EC50 [µM]
O=C(/C=C/c1cccc([N+](=O)[O-])c1)Nc1cccc(NC(=O)c2cccs2)c1 [MLS000574752]	3.68
CC(/C=C1\SC(=S)N(C(C(=O)O)C(C)C)C1=O)=C\c1ccccc1 (stereo unspecified) [MLS000713304]	2.68
CC(C)c1ccc(C=NNC(=O)c2ccccc2Cl)cc1 [2-chloranyl-N-[(4-propan-2-ylphenyl)methylideneamino]benzamide]	45.8
